According to patent US11312704B2, “Inhibitors of cysteine proteases and methods of use thereof” (priority 2020, dated 2022):

Each molecule was assayed on HCoV 229E (assay: HCoV 229E cytopathic effect (CPE) assay). Details: CellTiter Glo.
Assay type: cell-based, Human Coronavirus (HCov) 229E
Method: The antiviral activity of compounds was calculated based on the protection of the virus-induced CPE at each concentration normalized by the virus control.
Reagents and instruments used in this assay include luminescent cell viability assay kit CellTiter Glo (Promega) and Microplate Reader Synergy2 (BioTek).
Cytopathic effect (CPE) was measured by CellTiter Glo following the manufacturer's manual. The antiviral activity of compounds was calculated based on the protection of the virus-induced CPE at each concentration normalized by the virus control.

How did the EC50 turn out when `COc1cccc2[nH]c(C(=O)N[C@@H](CC(C)C)C(=O)N[C@@H](C[C@@H]3CCNC3=O)C(C#N)N3CCCC3)cc12` (single isomer, unassigned) [331 (Isomer 1)] was run?
The EC50 was under 2000 nM.

For `COc1cccc2[nH]c(C(=O)N3CC4(CC4)C[C@H]3C(=O)N[C@H](C#N)C[C@@H]3CCNC3=O)cc12` [Compound 397], which EC50 is on record?
The EC50 was under 2000 nM.

Which EC50 does the source give for `COc1cccc2[nH]c(C(=O)N3CC4(CCCC4)C[C@H]3C(=O)N[C@H](C#N)C[C@@H]3CCNC3=O)cc12` [Compound 401, (S)—N—((S)-1-cyano-2-((S)-2-oxopyrrolidin-3-yl)ethyl)-2-(4-methoxy-1H-indole-2-carbonyl)-2-azaspiro[4.4]nonane-3-carboxamide] here?
The EC50 was under 2000 nM.

For `COc1cccc2[nH]c(C(=O)N[C@@H](CC3CCCCC3)C(=O)N[C@H](C#N)C[C@@H]3CCNC3=O)cc12` [Compound 185, N-[(1S)-2-[[(1S)-1-cyano-2-[(3S)-2-oxopyrrolidin-3-yl]ethyl]amino]-1-(cyclohexylmethyl)-2-oxo-ethyl]-4-methoxy-1H-indole-2-carboxamide], which EC50 is on record?
The EC50 was under 2000 nM.

With `CC(C)C[C@H](NC(=O)c1cc2c(OC(F)F)cccc2[nH]1)C(=O)N[C@H](C#N)C[C@@H]1CCNC1=O` [Compound 509] as the molecule, how does the EC50 read?
The EC50 was under 2000 nM.

How did the EC50 turn out when `N#C[C@H](C[C@@H]1CCNC1=O)NC(=O)[C@H](CC1CC1)NC(=O)c1cc2c(C3CC3)cccc2[nH]1` [Compound 375A] was run?
The EC50 was under 2000 nM.

With `CC(C)(C)C[C@H](NC(=O)c1cc2c(Cl)ccc(Cl)c2[nH]1)C(=O)N[C@H](C#N)C[C@@H]1CCCNC1=O` [Compound 735] as the molecule, how does the EC50 read?
The EC50 was under 2000 nM.

With `COc1cccc2[nH]c(C(=O)N3C[C@H](c4ccccc4)C[C@H]3C(=O)N[C@@H](C[C@@H]3CCNC3=O)C(O)C#N)cc12` (some centres unmarked) [Compound 345] as the molecule, how does the EC50 read?
Its EC50 is under 2000 nM.

How did the EC50 turn out when `CC(C)(C)C[C@H](NC(=O)c1cc2cccc(Cl)c2[nH]1)C(=O)N[C@H](C#N)C[C@@H]1CCCNC1=O` [Compound 721, 7-chloro-N—((S)-1-(((S)-1-cyano-2-((S)-2-oxopiperidin-3-yl)ethyl)amino)-4,4-dimethyl-1-oxopentan-2-yl)-1H-indole-2-carboxamide] was run?
The EC50 was under 2000 nM.

With `N#C[C@H](C[C@@H]1CCCNC1=O)NC(=O)[C@H](CC1CC1)NC(=O)c1nc2c(Cl)ccc(Cl)c2[nH]1` [Compound 637, 4,7-dichloro-N-[(1S)-2-[[(1S)-1-cyano-2-[(3S)-2-oxo-3-piperidyl]ethyl]amino]-1-(cyclopropylmethyl)-2-oxo-ethyl]-1H-benzimidazole-2-carboxamide] as the molecule, how does the EC50 read?
Its EC50 is under 2000 nM.

How did the EC50 turn out when `COc1cccc2[nH]c(C(=O)N[C@@H](CC(C)C)C(=O)N[C@H](C#N)C[C@@H]3CCNC3=O)cc12` [Compound 101, N-[(1S)-1-[[(1S)-1-cyano-2-[(3S)-2-oxopyrrolidin-3-yl]ethyl]carbamoyl]-3-methyl-butyl]-4-methoxy-1H-indole-2-carboxamide] was run?
Its EC50 is under 2000 nM.

With `COc1cccc2[nH]c(C(=O)N3C[C@H](c4ccccc4)C[C@H]3C(=O)N[C@@H](C[C@@H]3CCNC3=O)C(O)C#N)cc12` (single isomer, unassigned) [345 (Isomer 2)] as the molecule, how does the EC50 read?
The EC50 was under 2000 nM.

With `COc1ccc(Cl)c2[nH]c(C(=O)N[C@@H](CC(C)(C)C)C(=O)N[C@H](C#N)C[C@@H]3CCCNC3=O)cc12` [Compound 737] as the molecule, how does the EC50 read?
The EC50 was under 2000 nM.

Which EC50 does the source give for `CC(C)C[C@H](NC(=O)/C=C/c1ccc(Cl)cc1F)C(=O)N[C@H](C#N)C[C@@H]1CCNC1=O` [Compound 598] here?
The EC50 was under 2000 nM.

With `COc1cccc2[nH]c(C(=O)N[C@@H](CC(C)(C)C)C(=O)N[C@H](C#N)C[C@@H]3CCNC3=O)cc12` [Compound 405, N-[(1S)-1-[[(1S)-1-cyano-2-[(3S)-2-oxopyrrolidin-3-yl]ethyl]carbamoyl]-3,3-dimethyl-butyl]-4-methoxy-1H-indole-2-carboxamide] as the molecule, how does the EC50 read?
Its EC50 is under 2000 nM.

Which EC50 does the source give for `COc1cccc2[nH]c(C(=O)N3C[C@H](c4ccccc4)C[C@H]3C(=O)N[C@H](C#N)C[C@@H]3CCNC3=O)cc12` [Compound 171] here?
Its EC50 is under 2000 nM.

How did the EC50 turn out when `N#C[C@H](C[C@@H]1CCNC1=O)NC(=O)[C@H](CC1CC1)NC(=O)c1cc2c([nH]1)CCCC2` [Compound 711] was run?
Its EC50 is under 2000 nM.

How did the EC50 turn out when `COc1cccc2[nH]c(C(=O)N3C[C@H](c4ccccc4)CC3C(=O)N[C@H](C=O)C[C@@H]3CCNC3=O)cc12` (some centres unmarked) [Compound 344A] was run?
Its EC50 is under 2000 nM.

Which EC50 does the source give for `COc1cccc2[nH]c(C(=O)N[C@@H](CC(C)C)C(=O)N[C@@H](C[C@@H]3CCNC3=O)C(O)C#N)cc12` (single isomer, unassigned; isomer 2) [135 (Isomer 2)] here?
Its EC50 is under 2000 nM.

For `COc1cccc2[nH]c(C(=O)N[C@@H](CC(C)C)C(=O)N[C@@H](C[C@@H]3CCNC3=O)C(N)C#N)cc12` (stereo partly drawn) [Compound 344C, N-[(1S)-1-[[(1S)-2-amino-2-cyano-1-[[(3S)-2-oxopyrrolidin-3-yl]methyl]ethyl]carbamoyl]-3-methyl-butyl]-4-methoxy-1H-indole-2-carboxamide], which EC50 is on record?
The EC50 was under 2000 nM.

For `COc1cccc2[nH]c(C(=O)N[C@@H](CC(C)C)C(=O)N[C@@H](C[C@@H]3CCNC3=O)C(C#N)NC(C)(C)C)cc12` (single isomer, unassigned) [323 (Isomer 1)], which EC50 is on record?
The EC50 was under 2000 nM.

How did the EC50 turn out when `CC(C)(C)C[C@H](NC(=O)c1cc2ccc(Cl)c(Cl)c2[nH]1)C(=O)N[C@H](C#N)C[C@@H]1CCCNC1=O` [Compound 725] was run?
Its EC50 is under 2000 nM.

For `COc1cccc2[nH]c(C(=O)N[C@@H](CC(C)C)C(=O)N[C@@H](C[C@@H]3CCNC3=O)C(C#N)NCC(=O)O)cc12` (some centres unmarked) [Compound 653], which EC50 is on record?
Its EC50 is under 2000 nM.

`CCOc1cccc2[nH]c(C(=O)N[C@@H](CC(C)C)C(=O)N[C@H](C#N)C[C@@H]3CCNC3=O)cc12` [Compound 377] was tested. Which EC50 did it give?
The EC50 was under 2000 nM.

With `COc1cccc2[nH]c(C(=O)N[C@@H](CC3CCC3)C(=O)N[C@H](C#N)C[C@@H]3CCNC3=O)cc12` [Compound 577] as the molecule, how does the EC50 read?
The EC50 was under 2000 nM.

For `COc1cccc2[nH]c(C(=O)NC(CC(C)C)C(=O)NC(CC3CCNC3=O)C(O)C#N)cc12` [Compound 134, N-[(1S)-1-[[(1S)-2-cyano-2-hydroxy-1-[[(3S)-2-oxopyrrolidin-3-yl]methyl]ethyl]carbamoyl]-3-methyl-butyl]-4-methoxy-1H-indole-2-carboxamide], which EC50 is on record?
The EC50 was under 2000 nM.

With `CC(C)C[C@H](NC(=O)c1nc2cccc(Cl)c2[nH]1)C(=O)N[C@H](C#N)C[C@@H]1CCNC1=O` [Compound 133] as the molecule, how does the EC50 read?
Its EC50 is under 2000 nM.

Which EC50 does the source give for `COc1cccc2[nH]c(C(=O)N[C@@H](CC(C)(C)C)C(=O)N[C@H](C#N)C[C@@H]3CCCNC3=O)cc12` [Compound 643, N-[(1S)-1-[[(1S)-1-cyano-2-[(3S)-2-oxo-3-piperidyl]ethyl]carbamoyl]-3,3-dimethyl-butyl]-4-methoxy-1H-indole-2-carboxamide] here?
The EC50 was under 2000 nM.

For `COc1cccc2[nH]c(C(=O)N3CC(C45CC(C4)C5)C[C@H]3C(=O)N[C@H](C#N)C[C@@H]3CCNC3=O)cc12` (single isomer, unassigned) [385 (Isomer 1)], which EC50 is on record?
Its EC50 is under 2000 nM.

How did the EC50 turn out when `CC(C)(C)C[C@H](NC(=O)c1cc2ccc(Cl)cc2[nH]1)C(=O)N[C@H](C#N)C[C@@H]1CCCNC1=O` [Compound 745] was run?
Its EC50 is under 2000 nM.

Which EC50 does the source give for `CC(C)C[C@H](NC(=O)c1nc2ccccc2[nH]1)C(=O)N[C@H](C#N)C[C@@H]1CCNC1=O` [Compound 103, N-[(1S)-1-[[(1S)-1-cyano-2-[(3S)-2-oxopyrrolidin-3-yl]ethyl]carbamoyl]-3-methyl-butyl]-1H-benzimidazole-2-carboxamide] here?
Its EC50 is under 2000 nM.

How did the EC50 turn out when `COc1cccc2[nH]c(C(=O)N[C@@H](CC(C)C)C(=O)N[C@@H](C[C@@H]3CCNC3=O)C(O)C#N)cc12` (single isomer, unassigned) [134 (Isomer 1)] was run?
Its EC50 is under 2000 nM.

Which EC50 does the source give for `CCNC(C#N)[C@H](C[C@@H]1CCNC1=O)NC(=O)[C@H](CC(C)C)NC(=O)c1cc2c(OC)cccc2[nH]1` (stereo partly drawn) [Compound 511, N-[(1S)-1-[[(1S)-2-cyano-2-(ethylamino)-1-[[(3S)-2-oxopyrrolidin-3-yl]methyl]ethyl]carbamoyl]-3-methyl-butyl]-4-methoxy-1H-indole-2-carboxamide] here?
Its EC50 is under 2000 nM.

Which EC50 does the source give for `COc1cccc2[nH]c(C(=O)N[C@@H](CC3CC3)C(=O)N[C@H](C#N)C[C@@H]3CCNC3=O)cc12` [Compound 205, N—((S)-1-(((S)-1-cyano-2-((S)-2-oxopyrrolidin-3-yl)ethyl)amino)-3-cyclopropyl-1-oxopropan-2-yl)-4-methoxy-1H-indole-2-carboxamide] here?
Its EC50 is under 2000 nM.

For `COc1cccc2[nH]c(C(=O)N[C@@H](CC3CC3)C(=O)N[C@H](C#N)C[C@@H]3CCCNC3=O)cc12` [Compound 491, N-[(1S)-2-[[(1S)-1-cyano-2-[(3S)-2-oxo-3-piperidyl]ethyl]amino]-1-(cyclopropylmethyl)-2-oxo-ethyl]-4-methoxy-1H-indole-2-carboxamide], which EC50 is on record?
The EC50 was under 2000 nM.

For `COc1cccc2[nH]c(C(=O)N[C@@H](CC(C)C)C(=O)N[C@@H](C[C@@H]3CCNC3=O)C(C#N)NCc3ccccc3)cc12` (single isomer, unassigned) [507 (Isomer 1.1)], which EC50 is on record?
Its EC50 is under 2000 nM.

Which EC50 does the source give for `N#C[C@H](C[C@@H]1CCNC1=O)NC(=O)[C@H](CC1CC1)NC(=O)c1cc2cccc(Cl)c2[nH]1` [Compound 531, 7-chloro-N-[(1S)-2-[[(1S)-1-cyano-2-[(3S)-2-oxopyrrolidin-3-yl]ethyl]amino]-1-(cyclopropylmethyl)-2-oxo-ethyl]-1H-indole-2-carboxamide] here?
Its EC50 is under 2000 nM.

Which EC50 does the source give for `N#C[C@H](C[C@@H]1CCNC1=O)NC(=O)[C@H](CC1CC1)NC(=O)c1cc2cc(Cl)ccc2[nH]1` [Compound 519] here?
The EC50 was under 2000 nM.

How did the EC50 turn out when `COc1cccc2[nH]c(C(=O)N3CC4(CCCCC4)CC3C(=O)N[C@H](C#N)C[C@@H]3CCNC3=O)cc12` (single isomer, unassigned) [389A (Isomer 1)] was run?
The EC50 was under 2000 nM.

`COc1cccc2[nH]c(C(=O)N3C[C@H]4C([C@H]3C(=O)N[C@H](C#N)C[C@@H]3CCNC3=O)C4(C)C)cc12` (stereo partly drawn) [Compound 197, (2S,5S)—N-[(1S)-1-cyano-2-[(3S)-2-oxopyrrolidin-3-yl]ethyl]-3-(4-methoxy-1H-indole-2-carbonyl)-6,6-dimethyl-3-azabicyclo[3.1.0]hexane-2-carboxamide] was tested. Which EC50 did it give?
Its EC50 is under 2000 nM.

Which EC50 does the source give for `CC(C)C[C@H](NC(=O)c1cc2c(OC(F)(F)F)cccc2[nH]1)C(=O)N[C@H](C#N)C[C@@H]1CCNC1=O` [Compound 361] here?
Its EC50 is under 2000 nM.
